According to patent US20250367100A1, “GINSENOSIDE COMPOSITION, DAILY CHEMICAL AND USE” (INCIPIRIT TECH (GUANGZHOU) CO., LTD., priority 2023, published 2025):
Counter-ions that a name gives are not always drawn.

Test system: human epidermal keratinocytes
Assay: Proliferation of epidermal keratinocytes in a co-culture system of dermal papilla cells and epidermal keratinocytes
Assay type: cell-based
Conditions: 0.2 μg/ml, 2 μg/ml, 20 μg/ml, 200 μg/ml, FIG. 5
Procedure: Add 500 μl of human epidermal keratinocytes (30,000 cells/ml) to each well of a 24-well MULTIWELL plate, then add a 1.0 μm of cell culture insert, and culture for 1 day. The 1.0 μm of cell culture insert already contains 300 μl of dermal papilla cells (20,000 cells/ml). Subsequently, add 1 μl/well each of the ginseng extracts 1-7, the positive control minoxidil sulfate, and the blank control (DMSO), and continue culturing for 3 days. Remove the 1.0 μm of cell culture insert, add 50 μl/well of Cell Counting Kit-8 (Dojindo Molecular Technologies, Inc.), continue culturing for 2 hours, and determine cell number using a microplate reader (450 nm, Mix 0).

Q: For `Nc1cc(N2CCCCC2)nc(N)[n+]1OS(=O)(=O)[O-]` [minoxidil sulfate], which “proliferation of keratinocytes in co-culture system” value is on record?
A: no effect in promoting the proliferation of keratinocyte
